Experiment [1] can be described thus: Antioxidant activity by DPPH method. Particulars: DPPH radical scavenging, 517 nm; ± SEM. As for the experimental part: This method opted for evaluation of free radical scavenging activity of DPPH was based on modified procedure described by […] et al.. The tested compounds were prepared in methanolic solution and reacted with methanolic solution of DPPH at 37 °C. The reaction mixture was prepared in 96-well plate by adding 50 μL of sample, 50 μl of methanol and 50 μl of DPPH solution prepared in 0.1 mM methanol. The mechanism of action of DPPH assay was based on the fact that DPPH radical get reduced during its reaction with an antioxidant compound and results in changes of color (from deep violet to light yellow). […] The mixture of methanol (5.0 ml) and tested compounds (0.2 ml) serve as blank. Ascorbic acid served as positive control.
(In general: DPPH is a stable violet radical that fades when it is reduced.)

Experiment [2] is described as follows: Hydrogen peroxide scavenging (H2O2) assay. The following applies: 230 nm, pH 7.4, ± SEM, read-out: IC50 (µM) ± SEM, H2O2 method. As for the experimental part: The solution of H2O2 (100 mM) was prepared via adding up different concentrations of synthesized derivatives ranging from 5 to 80 μg/ml to H2O2 solution (2 ml), prepared in 20 mM phosphate buffer of pH 7.4. Finally, the absorbance of H2O2 was measured at 230 nm after incubating for 10 min next to a blank reading of phosphate buffer without H2O2. For every measurement, a fresh reading of blank was taken to carry out background correction. For control sample containing H2O2 was scanned for absorbance at 230 nm. Results calculated as percentage of hydrogen peroxide inhibition was estimated by the formula [(Ab–At)/[…]] × 100, where Ab is the absorbance of the control and At is the absorbance of compounds/standard taken as L-ascorbic acid (5–80 μg/ml) are shown in Table 5.

The subject of the next experiment is T1, xanthine oxidase.
T1 construct: purchased Sigma (Sigma-Aldrich) MAK078
Description: Enzyme kinetic analysis for XO-inhibitory activity (Michaelis-Menten, Lineweaver-Burk). Type of experiment: biochemical, human. The method, then:
Firstly Michaelis–Menten curve was plotted for the enzyme activity at different concentrations of RU3a3 against different concentration of substrate (xanthine) Fig. 11.
Then double reciprocal plot (Lineweaver–Burk) analysis was done in the presence (0.25, 0.5, and 1.0 µM) and absence of RU3a3 from in vitro data generated during the oxidation of xanthine in presence of xanthine oxidase (Fig. 12). The x- and y axis intercepts of the Lineweaver–Burk plot were utilized to calculate Km and Vmax values of RU3a3 at different concentrations (Table 4).

Molecules are shown by their SMILES.

T1 sequence (P47989 whole entry): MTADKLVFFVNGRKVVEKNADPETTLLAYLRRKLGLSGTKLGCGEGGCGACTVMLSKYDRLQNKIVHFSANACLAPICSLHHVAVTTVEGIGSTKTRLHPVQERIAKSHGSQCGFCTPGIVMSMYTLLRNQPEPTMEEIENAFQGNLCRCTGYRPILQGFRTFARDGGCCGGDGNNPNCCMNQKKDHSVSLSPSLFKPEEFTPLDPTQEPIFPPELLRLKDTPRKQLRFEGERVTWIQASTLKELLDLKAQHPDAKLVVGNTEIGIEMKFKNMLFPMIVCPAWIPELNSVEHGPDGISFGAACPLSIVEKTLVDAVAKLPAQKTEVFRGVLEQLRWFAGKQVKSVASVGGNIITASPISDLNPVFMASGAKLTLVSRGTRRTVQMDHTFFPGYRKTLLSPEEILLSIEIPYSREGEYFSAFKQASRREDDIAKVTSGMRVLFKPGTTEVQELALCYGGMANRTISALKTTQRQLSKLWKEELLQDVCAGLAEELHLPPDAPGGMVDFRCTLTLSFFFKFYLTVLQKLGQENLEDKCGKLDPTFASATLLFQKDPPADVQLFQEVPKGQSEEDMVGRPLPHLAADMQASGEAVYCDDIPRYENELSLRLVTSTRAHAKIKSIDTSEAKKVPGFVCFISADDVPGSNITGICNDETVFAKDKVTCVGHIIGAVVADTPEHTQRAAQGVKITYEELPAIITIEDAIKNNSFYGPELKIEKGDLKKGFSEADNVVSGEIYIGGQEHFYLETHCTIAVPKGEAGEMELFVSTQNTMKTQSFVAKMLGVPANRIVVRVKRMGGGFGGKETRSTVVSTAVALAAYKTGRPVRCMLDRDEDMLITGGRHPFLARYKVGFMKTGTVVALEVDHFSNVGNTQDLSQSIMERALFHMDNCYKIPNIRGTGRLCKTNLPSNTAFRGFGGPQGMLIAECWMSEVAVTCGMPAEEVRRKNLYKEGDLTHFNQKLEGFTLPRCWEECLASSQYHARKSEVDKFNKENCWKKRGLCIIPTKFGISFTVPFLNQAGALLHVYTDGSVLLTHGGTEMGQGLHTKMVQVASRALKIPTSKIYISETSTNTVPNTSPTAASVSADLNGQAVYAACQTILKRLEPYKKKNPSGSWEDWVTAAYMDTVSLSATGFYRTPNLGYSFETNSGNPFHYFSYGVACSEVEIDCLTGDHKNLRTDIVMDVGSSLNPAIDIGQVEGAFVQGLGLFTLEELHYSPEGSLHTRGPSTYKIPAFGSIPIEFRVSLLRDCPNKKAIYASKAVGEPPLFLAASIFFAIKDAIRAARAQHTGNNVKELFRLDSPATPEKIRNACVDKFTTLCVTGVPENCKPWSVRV

The IC50 is the concentration at which inhibition is half-maximal. Regarding `CC1OC(OCC2OC(Oc3c(-c4ccc(O)c(O)c4)oc4cc(O)cc(O)c4c3=NNC(N)=S)C(O)C(O)C2O)C(O)C(O)C1O` (centres unmarked) [RU3a1], the IC50 in experiment [1] turned out to be 5.02 ± 0.1 µM; in experiment [2] it was 9.13 ± 0.35 µM.

Take `CC1OC(OCC2OC(Oc3c(-c4ccc(O)c(O)c4)oc4cc(O)cc(O)c4c3=NNC(=S)Nc3ccccc3)C(O)C(O)C2O)C(O)C(O)C1O` (centres unmarked) [RU3a2]: the IC50 in experiment [1] stood at 8.728 ± 0.02 µM; in experiment [2], 4.146 ± 0.01 µM.

Turning to `CC1OC(OCC2OC(Oc3c(-c4ccc(O)c(O)c4)oc4cc(O)cc(O)c4c3=NNc3ccccc3)C(O)C(O)C2O)C(O)C(O)C1O` (centres unmarked) [RU3a3], the values for the IC50 in experiment [1] and in experiment [2] were 11.688 ± 0.01 µM and 6.56 ± 0.1 µM, respectively. The “Vmax of xanthine oxidase” value with xanthine oxidase (Conc. of RU3a3 0.25 µM) is listed as 114.4 µmol/min; with xanthine oxidase (Conc. of RU3a3 0.5 µM), 108.2 µmol/min; in the experiment on xanthine oxidase (Conc. of RU3a3 1.0 µM) it was 98.7 µmol/min. Besides, the “Manner of xanthine oxidase inhibition” value in the experiment on xanthine oxidase (Lineweaver-Burk plot) is “competitive manner”.

For the compound `CC1OC(OCC2OC(Oc3c(-c4ccc(O)c(O)c4)oc4cc(O)cc(O)c4c3=Nc3ccc([N+](=O)[O-])cc3Cl)C(O)C(O)C2O)C(O)C(O)C1O` (centres unmarked) [RU4b1], the IC50 in experiment [1] is 2.65 ± 0.09 µM; in experiment [2] it was 9.86 ± 0.25 µM.

Turning to `CC1OC(OCC2OC(Oc3c(-c4ccc(O)c(O)c4)oc4cc(O)cc(O)c4c3=Nc3ccc([N+](=O)[O-])cc3)C(O)C(O)C2O)C(O)C(O)C1O` (centres unmarked) [RU4b2], the IC50 in experiment [1] worked out at 8.48 ± 0.25 µM; in experiment [2], 4.378 ± 0.01 µM.

Turning to `COc1cc(OC)c2c(=O)c(OC(=O)c3cccnc3)c(-c3ccc(OC)c(OC)c3)oc2c1` [RU7c1], the figures for the IC50 in experiment [1] and in experiment [2] were 6.06 ± 0.13 µM and 14.7 ± 0.6 µM, respectively.

`COc1cc(OC)c2c(=O)c(OC(=O)c3ccccc3O)c(-c3ccc(OC)c(OC)c3)oc2c1` [RU7c2]: the IC50 in experiment [1] stood at 14.669 ± 0.01 µM; in experiment [2], 12.1 ± 0.2 µM.

Turning to `COc1cc(OC)c2c(=O)c(OC(=O)/C=C/c3ccccc3)c(-c3ccc(OC)c(OC)c3)oc2c1` [RU7c3], the results for the 50% inhibitory concentration (IC50) in experiment [1] and in experiment [2] were 7.69 ± 0.42 µM and 17.9 ± 0.41 µM, respectively.
